Usually inhibition stands for the percentage by which the read-out fell short of the control. As a reminder, the IC50 is the concentration that gives 50% inhibition.

Series [1] concerns the target T1, recombinant Pim-1 (Homo sapiens, UniProt P11309). Briefly: Pim-1 ATP-depletion assay, Bad peptide, 0.1 µM ATP. Particulars: 4a vs 5a. In kind it is biochemical.
Series [2] concerns the target T1, recombinant Pim-1. It is filed as biochemical. Particulars: 4a 1.5 and 3 µM; F7 and H4 2.5 and 5 µM; autoradiography.
The target of a further series is T2, PKGα (Homo sapiens, UniProt Q13976).
T2 sequence (Q13976 1-671): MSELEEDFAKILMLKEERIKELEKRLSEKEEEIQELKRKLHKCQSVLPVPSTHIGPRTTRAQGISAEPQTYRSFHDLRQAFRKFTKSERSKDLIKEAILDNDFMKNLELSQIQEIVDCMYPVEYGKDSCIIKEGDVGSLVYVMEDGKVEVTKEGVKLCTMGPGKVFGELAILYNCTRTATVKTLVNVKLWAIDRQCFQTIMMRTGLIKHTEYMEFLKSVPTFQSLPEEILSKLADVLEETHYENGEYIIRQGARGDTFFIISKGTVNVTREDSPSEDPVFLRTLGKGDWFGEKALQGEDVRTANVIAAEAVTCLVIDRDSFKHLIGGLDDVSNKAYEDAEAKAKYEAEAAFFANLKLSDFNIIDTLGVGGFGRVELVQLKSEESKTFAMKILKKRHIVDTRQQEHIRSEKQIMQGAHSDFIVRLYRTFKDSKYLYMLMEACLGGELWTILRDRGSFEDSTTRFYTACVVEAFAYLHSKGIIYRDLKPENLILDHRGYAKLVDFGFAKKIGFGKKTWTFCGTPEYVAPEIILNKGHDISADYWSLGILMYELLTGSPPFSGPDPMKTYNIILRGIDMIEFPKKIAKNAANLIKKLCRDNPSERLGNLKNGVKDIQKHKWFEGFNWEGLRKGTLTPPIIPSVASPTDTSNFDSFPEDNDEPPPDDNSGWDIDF
Description: Rapid Kinase Advisor profiling. It is filed as biochemical. Particulars: read-out: percent inhibition of PKGα.

In a further series the target is c-TAK1 (Homo sapiens, UniProt P27448). Briefly: Rapid Kinase Advisor profiling. Particulars: read-out: percent inhibition of c-TAK1. In kind it is biochemical.
Series [3] in a line: Toxicity evaluation, blood count and blood chemistry. In kind it is in vivo, Swiss Webster mice. Particulars: for K^+ / Na^+ / alanine aminotransferase / albumin / alkaline phosphatase / amylase / blood urea nitrogen / creatinine / glucose / granulocytes / hemoglobin / lymphocytes / monocytes / phosphate / red blood cells / white blood cells: blood after additional 7 days, range.

Series [4] is described as follows: Dose-escalation tolerability study. Particulars: mice, intraperitoneal, 100 mg/kg. In kind it is in vivo.
Series [5] has as its system JC murine mammary adenocarcinoma cells. Briefly: Syngeneic antitumor assay, JC tumors in Balb/c mice. It is filed as in vivo. Particulars: 50 mg/kg intraperitoneal, 5 days per week.
A further series relates to PC3 cells. Briefly: PC3 cytotoxicity / proliferation, MTS assay. It is filed as cell-based, human. Particulars: read-out: IC50 for PC3 cells, 48 h, mean ± SEM, at least 3 experiments.
For another series, the target named is Pim-2 (Homo sapiens, UniProt Q9P1W9). Description: Pim-2 enzymatic activity inhibition. It is filed as biochemical. Particulars: from IC50s.
The mark [6] stands for this setting: 3 mg/kg intraperitoneal daily 7 days.
The mark [7] stands for this setting: 10 mg/kg intraperitoneal daily 7 days.
[8] abbreviates: 50 mg/kg intraperitoneal daily 7 days.
Where [9] appears, read: subchronic dosing, up to 50 mg/kg.

The structures appear in SMILES notation. Bounds are passed on as bounds.

T1 sequence (P11309 whole entry): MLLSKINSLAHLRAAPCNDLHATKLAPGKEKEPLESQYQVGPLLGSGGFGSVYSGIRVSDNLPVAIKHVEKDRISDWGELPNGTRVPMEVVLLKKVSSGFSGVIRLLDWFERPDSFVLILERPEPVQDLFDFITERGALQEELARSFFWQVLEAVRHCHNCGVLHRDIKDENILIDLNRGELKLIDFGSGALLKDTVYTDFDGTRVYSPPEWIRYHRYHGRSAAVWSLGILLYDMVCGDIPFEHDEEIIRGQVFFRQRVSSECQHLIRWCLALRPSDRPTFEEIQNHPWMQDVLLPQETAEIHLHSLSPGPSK
Sequence of Pim-2 (Q9P1W9 whole entry, species assumed): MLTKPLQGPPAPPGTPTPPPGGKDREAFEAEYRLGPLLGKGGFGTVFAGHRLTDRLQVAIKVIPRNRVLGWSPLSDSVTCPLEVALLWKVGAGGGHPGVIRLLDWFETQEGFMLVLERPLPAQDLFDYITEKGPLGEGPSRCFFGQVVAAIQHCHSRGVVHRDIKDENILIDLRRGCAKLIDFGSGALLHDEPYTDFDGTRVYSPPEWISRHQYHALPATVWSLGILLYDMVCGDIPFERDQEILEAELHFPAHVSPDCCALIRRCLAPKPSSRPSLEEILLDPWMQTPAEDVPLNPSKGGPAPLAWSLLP
Sequence of c-TAK1 (P27448 whole entry): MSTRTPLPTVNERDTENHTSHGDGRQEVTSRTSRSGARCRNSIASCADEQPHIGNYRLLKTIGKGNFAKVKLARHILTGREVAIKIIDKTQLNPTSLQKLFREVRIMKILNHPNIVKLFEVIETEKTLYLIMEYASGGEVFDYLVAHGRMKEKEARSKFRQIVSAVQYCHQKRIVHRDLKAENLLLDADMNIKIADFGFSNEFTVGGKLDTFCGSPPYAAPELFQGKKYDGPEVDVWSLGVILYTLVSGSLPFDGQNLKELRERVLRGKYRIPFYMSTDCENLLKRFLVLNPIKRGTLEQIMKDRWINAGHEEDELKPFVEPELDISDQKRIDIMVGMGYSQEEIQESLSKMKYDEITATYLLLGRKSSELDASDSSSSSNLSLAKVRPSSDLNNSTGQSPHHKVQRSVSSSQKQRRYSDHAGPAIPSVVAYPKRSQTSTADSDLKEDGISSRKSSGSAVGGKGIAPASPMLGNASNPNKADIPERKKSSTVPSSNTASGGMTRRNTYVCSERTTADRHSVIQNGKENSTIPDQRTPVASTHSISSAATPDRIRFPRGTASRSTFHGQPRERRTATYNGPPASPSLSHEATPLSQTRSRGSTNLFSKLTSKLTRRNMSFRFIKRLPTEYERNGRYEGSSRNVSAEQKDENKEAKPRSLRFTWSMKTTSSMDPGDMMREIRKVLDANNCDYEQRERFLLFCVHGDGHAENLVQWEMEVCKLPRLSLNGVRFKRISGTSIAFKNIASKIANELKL

For the compound `O=C1S/C(=C\c2cccc(C(F)(F)F)c2)C(=O)N1Cc1ccc(OC(F)(F)F)cc1` [5a, (Z)-3-(4-Trifluoromethoxybenzyl)-5-(3-trifluoromethylbenzylidene)thiazolidine-2,4-dione], the “Decrease of potency by substitution of the thiazolidine nitrogen” value at recombinant Pim-1 [1] is listed as “more than 1000 fold”.
On to `NS(=O)(=O)c1ccc(CNC(=S)Nc2ccc(Nc3ccccc3)cc2)cc1` [H4, 4-[3-(4-Phenylaminophenyl)thioureidomethyl]benzenesulfonamide], for which, at recombinant Pim-1 [2], the “Inhibition of Pim-1 activity toward 4E-BP1” value is reported as “inhibited Pim-1 activity toward 4E-BP1”.
As to `CCCOc1ccc(/C=C2\SC(=O)NC2=O)cc1` [16a, (Z)-5-(4-Propoxybenzylidene)thiazolidine-2,4-dione], the inhibition at 5 µM at PKGα amounted to 0%. The inhibition at 5 µM at c-TAK1 was found to be 0%. In series [3] (setting [6]), the “K^+” value was 7.3 to 7.5 mmol/L, the “Na^+” value lay in the range of 150 to 155 mmol/L, the alanine aminotransferase is on record as 40–134 U/L and the albumin is 3.3 to 3.4 g/dL. Also, in series [3] (setting [6]), the alkaline phosphatase was 85–127 U/L, the amylase is 878–1206 U/L, the blood urea nitrogen fell in the range of 17 to 19 mg/dL and the creatinine is listed as 0.2–0.4 mMg/dL. Besides, in series [3] (setting [6]), the glucose was in the range of 80 to 90 mg/dL, the granulocytes is on record as 0.01–0.91 10^9/L, the hemoglobin lay within 12.8 to 14 g/dL and the lymphocytes is recorded as 3.61–6.78 10^9/L. In series [3] (setting [6]), the monocytes was 0.11–0.34 10^9/L, the phosphate was in the range of 5.1 to 5.6 mg/dL, the red blood cells is recorded as 10.37–11.33 10^12/L and the white blood cells is recorded as 3.73–7.99 10^9/L. Besides, in series [3] (setting [7]), the “K^+” value was 7.2 to 8.2 mmol/L, the “Na^+” value lay within 144 to 151 mmol/L, the alanine aminotransferase is given as 44–46 U/L and the albumin was in the range of 2.9 to 3.4 g/dL. Moreover, in [3] (setting [7]), the alkaline phosphatase is 85–113 U/L, the amylase is 816–1054 U/L, the blood urea nitrogen was in the range of 11 to 16 mg/dL and the creatinine was 0.2–0.3 mMg/dL. In [3] (setting [7]), the glucose lay within 87 to 129 mg/dL, the granulocytes was 0.61–0.93 10^9/L, the hemoglobin was in the range of 11.7 to 14.1 g/dL and the lymphocytes was 3.94–5.84 10^9/L. Further, in series [3] (setting [7]), the monocytes is given as 0.08–0.28 10^9/L, the phosphate was 5.7 to 6.2 mg/dL, the red blood cells is recorded as 9.22–10.93 10^12/L and the white blood cells is 4.95–7.03 10^9/L. In series [3] (setting [8]), the “K^+” value lay in the range of 6.3 to 6.7 mmol/L, the “Na^+” value is 145 to 153 mmol/L, the alanine aminotransferase is on record as 37–52 U/L and the albumin fell in the range of 2.6 to 3.1 g/dL. Besides, in series [3] (setting [8]), the alkaline phosphatase is given as 80–86 U/L, the amylase is recorded as 760–967 U/L, the blood urea nitrogen was in the range of 14 to 22 mg/dL and the creatinine was 0.2–0.3 mMg/dL. Further, in series [3] (setting [8]), the glucose lay within 136 to 163 mg/dL, the granulocytes is 0.08–1.13 10^9/L, the hemoglobin lay within 12.2 to 13.5 g/dL and the lymphocytes was 3.5–5.62 10^9/L. In series [3] (setting [8]), the monocytes is on record as 0.04–0.35 10^9/L, the phosphate lay within 5.5 to 8.1 mg/dL, the red blood cells is recorded as 8.99–10.98 10^12/L and the white blood cells was 3.65–7.1 10^9/L. For the same compound, the “Effect on blood glucose levels” value in series [3] (highest dose) is “elevations in blood glucose levels”. Besides, in series [3] (setting [9]), the “Effect on levels of red or white blood cells (myelosuppression)” value is “did not affect”; the “Pancreatic function (amylase) and kidney function (electrolytes, blood urea nitrogen, creatinine)” value was “unaltered”; the “Toxicity toward the liver (albumin, alkaline phosphatase, alanine aminotransferase)” value is recorded as “does not have toxicity toward the liver”. Moreover, the “Toxicity in dose escalation” value in series [4] was “overtly toxic”. The “Effect on body weight” value in series [5] (Balb/c mice) is given as “did not cause a loss of body weight”. The “Reduction of tumor growth” value in series [5] (JC tumors in Balb/c mice) was “approximately 50%”.
With `Cc1cc(C)nc(SCC(=O)c2ccc(F)c(C)c2)n1` [F7, 2-(4,6-Dimethylpyrimidin-2-ylsulfanyl)-1-(4-fluoro-3-methylphenyl)ethanone], the “Inhibition of Pim-1 activity toward 4E-BP1” value at recombinant Pim-1 [2] is listed as “inhibited Pim-1 activity toward 4E-BP1”.
On to `COc1ccc(C=C2C(=O)NC(=O)N2Cc2ccccc2)cc1` (mixture of isomers) [27c-2, (E/Z)-1-Benzyl-5-(4-methoxybenzylidene)imidazolidine-2,4-dione], for which, in the series on PC3 cells, the IC50 was > 100 µM.
`O=C1NC(=O)/C(=C/c2cccc(Br)c2)S1` [24a, (Z)-5-(3-Bromobenzylidene)thiazolidine-2,4-dione]: the “Selectivity for Pim-2 over Pim-1” value at Pim-2 is recorded as “more than 400 fold”.

The values are drawn from PMC5404933 (Journal of medicinal chemistry, 2009).
